From publication PMC5053523, “In Vitro Antibacterial Activity of Rhodanine Derivatives against Pathogenic Clinical Isolates” (PLoS ONE, 2016)
≈ marks a conversion by molar mass, not a printed value. Where two headings read alike, the source gives them in different places.

Legend:
Candida albicans = experiment: MIC against Candida albicans; type: cell-based; conditions: table prints none, read-out: MIC
Acinetobacter baumannii = experiment: MIC with/without sub-MIC colistin, Acinetobacter baumannii; type: cell-based
How it was run: (§1)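 Read-out is the MIC, determined with sub-inhibitory colistin or polymixin B nonapeptide co-applied to permeabilize the outer membrane of Gram-negative bacteria.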

Klebsiella pneumoniae = experiment: MIC with/without sub-MIC colistin, Klebsiella pneumoniae; type: cell-based
How it was run: as §1

Escherichia coli O157:H7 [1] = experiment: MIC with/without sub-MIC colistin, Escherichia coli O157:H7; type: cell-based
How it was run: as §1

B. cereus = experiment: Broth microdilution MIC/MBC, B. cereus; type: cell-based; conditions: Bacillus cereus; for MBC: read-out: MBC; for MIC: read-out: MIC
Excerpt: The broth microdilution technique was used, followed by subculturing on agar plates that were rhodanine—free.

B. licheniformis = experiment: Broth microdilution MIC/MBC, B. licheniformis; type: cell-based; conditions: Bacillus licheniformis; for MBC: read-out: MBC; for MIC: read-out: MIC
Mycobacterium smegmatis = experiment: Broth microdilution MIC/MBC, Mycobacterium smegmatis; type: cell-based; conditions: Mycolicibacterium smegmatis, ATCC14468, M. Smegmatis ATCC 14468
Escherichia coli Δ acrAB = experiment: MIC against E. coli 1411 and AcrAB efflux pump deficient E. coli SM1411Δ acrAB; type: cell-based
How it was run: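 Sub-MIC colistin or PMBN added to broth MIC tests of rhodanines and reference antibiotics against Gram-negative strains; AcrAB efflux-deficient E. coli SM1411ΔacrAB also tested.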

Clostridium difficile = experiment: MIC against Clostridium difficile, anaerobic broth dilution; type: cell-based; conditions: Clostridioides difficile
How it was run: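 Clinical C. difficile isolates grown anaerobically 48 h at 37 °C, suspended to 0.5 McFarland and diluted 1:300 in pre-reduced supplemented Brain Heart Infusion broth. Compounds serially diluted; plates incubated anaerobically at 37 °C for 48 h. MIC = lowest concentration with no visible growth.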

[2] = test system: Vancomycin Resistant Staphylococcus aureus (VRSA); experiment: Broth microdilution MIC/MBC, VRSA; type: cell-based; conditions: for MBC / MIC: VRSA
Bacillus Strains = experiment: Broth microdilution MIC50/MIC90 and MIC range, Bacillus strains panel; type: cell-based, Bacillus spp.; conditions: 10 Bacillus strains
Excerpt: The broth microdilution technique was used, followed by subculturing on agar plates that were rhodanine—free. […] The MICs reported represent the lowest concentration of each compound necessary to inhibit bacterial growth and the MBCs represent the lowest concentration required to reduce the initial bacterial inoculum by ≥ 99.9%.

Escherichia coli O157:H7 [3] = experiment: MIC with/without PMBN, Escherichia coli O157:H7; type: cell-based
How it was run: as §1

[4] = test system: vancomycin resistant enterococci (VRE) E. faecium; experiment: Broth microdilution MIC/MBC, VRE E. faecium; type: cell-based; conditions: for MIC: read-out: MIC
[5] = NRS201, B. cereus NRS 201 NR-2488
[6] = NCIB9375, B. licheniformis Gibson 46 (NCIB 9375) NR-2494
[7] = NRS712, B. licheniformis NRS 712 NR-2499
[8] = E. faecium HM 968 Strain ERV102
[9] = E. faecium NR31914 Strain E0120
[10] = E. faecium Patient #1–1 NR-31903

## O=C(O)[C@H](Cc1ccccc1)N1C(=O)/C(=C/c2cccc(Cc3ccc(Cl)c(Cl)c3)c2)SC1=S [Rh 3]
Candida albicans; ATCC10231, C. albicans ATCC 10231, unit from abstract
  MIC: > 64 µM
Candida albicans; C. albicans NR 29434, unit from abstract
  MIC: > 64 µM
Candida albicans; C. albicans NR 29435, unit from abstract
  MIC: > 64 µM
Candida albicans; C. albicans NR29437, unit from abstract
  MIC: > 64 µM
Candida albicans; C. albicans NR29438, unit from abstract
  MIC: > 64 µM
Candida albicans; C. albicans NR 29446, unit from abstract
  MIC: 64 µM (≈ 33.8 µg/mL)
Candida albicans; C. albicans NR 29448, unit from abstract
  MIC: > 64 µM
Candida albicans; C. albicans NR 29449, unit from abstract
  MIC: > 64 µM
Candida albicans; C. albicans NR 29453, unit from abstract
  MIC: > 64 µM
Candida albicans; C. albicans NR 294436, unit from abstract
  MIC: > 64 µM
Acinetobacter baumannii; Acinetobacter baumannii ATCC BAA747, colistin (+) […], read-out: MIC
  MIC: >64 µM
Acinetobacter baumannii; Acinetobacter baumannii ATCC BAA19606, colistin (+) […], read-out: MIC
  MIC: >64 µM
Acinetobacter baumannii; Acinetobacter baumannii, ATCCBAA747
  MIC: > 128 µM
Acinetobacter baumannii; Acinetobacter baumannii, ATCCBAA19606
  MIC: > 128 µM
Klebsiella pneumoniae; Klebsiella pneumoniae ATCC BAA 2146, colistin (+) […]
  MIC: >64 µM
Klebsiella pneumoniae; Klebsiella pneumoniae, BAA2146
  MIC: > 128 µM
Escherichia coli O157:H7 [1]; Escherichia coli O157:H7 ATCC 35150, colistin (+) […], read-out: MIC
  MIC: >64 µM
Escherichia coli O157:H7 [1]; Escherichia coli O157:H7 ATCC 700728, colistin (+) […], read-out: MIC
  MIC: >64 µM
Escherichia coli O157:H7 [1]; Escherichia coli, ATCC35150
  MIC: > 128 µM
Escherichia coli O157:H7 [1]; Escherichia coli, ATCC700728
  MIC: > 128 µM
B. cereus; B. cereus BAG1O-2 NR-28582
  MBC: 4 µM (≈ 2.11 µg/mL)
  MIC: 4 µM (≈ 2.11 µg/mL)
B. cereus; B. cereus BAG1X1-1 NR-28575
  MBC: 2 µM (≈ 1.06 µg/mL)
  MIC: 2 µM (≈ 1.06 µg/mL)
B. cereus; B. cereus BAG1X2-1 NR-28578
  MBC: 4 µM (≈ 2.11 µg/mL)
  MIC: 4 µM (≈ 2.11 µg/mL)
B. cereus; B. cereus G9241 NR-9564
  MBC: 4 µM (≈ 2.11 µg/mL)
  MIC: 4 µM (≈ 2.11 µg/mL)
B. cereus; B. cereus VD014 NR-22141
  MBC: 4 µM (≈ 2.11 µg/mL)
  MIC: 4 µM (≈ 2.11 µg/mL)
B. cereus; B. cereus VD115 NR-22148
  MBC: 4 µM (≈ 2.11 µg/mL)
  MIC: 4 µM (≈ 2.11 µg/mL)
B. cereus; B. cereus VD148 NR-22150
  MBC: 8 µM (≈ 4.23 µg/mL)
  MIC: 8 µM (≈ 4.23 µg/mL)
B. cereus; [5]
  MBC: 4 µM (≈ 2.11 µg/mL)
  MIC: 4 µM (≈ 2.11 µg/mL)
B. licheniformis; [6]
  MBC: 2 µM (≈ 1.06 µg/mL)
  MIC: 2 µM (≈ 1.06 µg/mL)
B. licheniformis; [7]
  MBC: 4 µM (≈ 2.11 µg/mL)
  MIC: 4 µM (≈ 2.11 µg/mL)
Mycobacterium smegmatis; read-out: MBC
  MBC: 8 µM (≈ 4.23 µg/mL)
Mycobacterium smegmatis; read-out: MIC
  MIC: 4 µM (≈ 2.11 µg/mL)
Escherichia coli Δ acrAB; E.coli 1411
  MIC: > 64 µM
Escherichia coli Δ acrAB; E.coli 1411 SM (Δ acrAB, AcrAB efflux pump deficient)
  MIC: > 64 µM
Clostridium difficile; C. difficile HM-88
  MIC: 2 µM (≈ 1.06 µg/mL)
Clostridium difficile; C. difficile HM-745
  MIC: 1 µM (≈ 0.528 µg/mL)
Clostridium difficile; C. difficile HM-746
  MIC: 2 µM (≈ 1.06 µg/mL)
Clostridium difficile; C. difficile Isolate-1 NR-13427
  MIC: 2 µM (≈ 1.06 µg/mL)
Clostridium difficile; C. difficile Toxigenic Strain P8 NR-32888
  MIC: 4 µM (≈ 2.11 µg/mL)
[2]; 15 VRSA strains, read-out: MIC 50
  MIC50: 8 µM (≈ 4.23 µg/mL)
[2]; 15 VRSA strains, read-out: MIC 90
  MIC90: 8 µM (≈ 4.23 µg/mL)
[2]; VRSA 1, read-out: MBC
  MBC: 32 µM (≈ 16.9 µg/mL)
[2]; VRSA 1, read-out: MIC
  MIC: 8 µM (≈ 4.23 µg/mL)
[2]; VRSA 2, read-out: MBC
  MBC: 16 µM (≈ 8.46 µg/mL)
[2]; VRSA 2, read-out: MIC
  MIC: 8 µM (≈ 4.23 µg/mL)
[2]; VRSA 3a, read-out: MBC
  MBC: 16 µM (≈ 8.46 µg/mL)
[2]; VRSA 3a, read-out: MIC
  MIC: 16 µM (≈ 8.46 µg/mL)
[2]; VRSA 3b, read-out: MBC
  MBC: 8 µM (≈ 4.23 µg/mL)
[2]; VRSA 3b, read-out: MIC
  MIC: 8 µM (≈ 4.23 µg/mL)
[2]; VRSA 4, read-out: MBC
  MBC: 32 µM (≈ 16.9 µg/mL)
[2]; VRSA 4, read-out: MIC
  MIC: 8 µM (≈ 4.23 µg/mL)
[2]; VRSA 5, read-out: MBC
  MBC: 64 µM (≈ 33.8 µg/mL)
[2]; VRSA 5, read-out: MIC
  MIC: 8 µM (≈ 4.23 µg/mL)
[2]; VRSA 6, read-out: MBC
  MBC: 16 µM (≈ 8.46 µg/mL)
[2]; VRSA 6, read-out: MIC
  MIC: 8 µM (≈ 4.23 µg/mL)
[2]; VRSA 7, read-out: MBC
  MBC: 32 µM (≈ 16.9 µg/mL)
[2]; VRSA 7, read-out: MIC
  MIC: 8 µM (≈ 4.23 µg/mL)
[2]; VRSA 8, read-out: MBC
  MBC: 16 µM (≈ 8.46 µg/mL)
[2]; VRSA 8, read-out: MIC
  MIC: 8 µM (≈ 4.23 µg/mL)
[2]; VRSA 9, read-out: MBC
  MBC: 16 µM (≈ 8.46 µg/mL)
[2]; VRSA 9, read-out: MIC
  MIC: 8 µM (≈ 4.23 µg/mL)
[2]; VRSA 10, read-out: MBC
  MBC: 64 µM (≈ 33.8 µg/mL)
[2]; VRSA 10, read-out: MIC
  MIC: 8 µM (≈ 4.23 µg/mL)
[2]; VRSA 11a, read-out: MBC
  MBC: 16 µM (≈ 8.46 µg/mL)
[2]; VRSA 11a, read-out: MIC
  MIC: 8 µM (≈ 4.23 µg/mL)
[2]; VRSA 11b, read-out: MBC
  MBC: 16 µM (≈ 8.46 µg/mL)
[2]; VRSA 11b, read-out: MIC
  MIC: 8 µM (≈ 4.23 µg/mL)
[2]; VRSA 12, read-out: MBC
  MBC: 32 µM (≈ 16.9 µg/mL)
[2]; VRSA 12, read-out: MIC
  MIC: 8 µM (≈ 4.23 µg/mL)
[2]; VRSA 13, read-out: MBC
  MBC: 32 µM (≈ 16.9 µg/mL)
[2]; VRSA 13, read-out: MIC
  MIC: 8 µM (≈ 4.23 µg/mL)
Bacillus Strains
  MIC50: 4 µM (≈ 2.11 µg/mL)
  MIC90: 4 µM (≈ 2.11 µg/mL)
Escherichia coli O157:H7 [3]; Escherichia coli O157:H7 ATCC 35150, PMBN (+) 4 μg/mL, read-out: MIC
  MIC: 8 µM (≈ 4.23 µg/mL)
Escherichia coli O157:H7 [3]; Escherichia coli O157:H7 ATCC 700728, PMBN (+) 4 μg/mL, read-out: MIC
  MIC: >64 µM
Escherichia coli O157:H7 [3]; Escherichia coli, ATCC35150
  MIC: > 256 µM
Escherichia coli O157:H7 [3]; Escherichia coli, ATCC700728
  MIC: > 128 µM
[4]; E. faecium E417 HM-965
  MBC: 64 µM (≈ 33.8 µg/mL)
  MIC: 4 µM (≈ 2.11 µg/mL)
[4]; E. faecium E1071 NR-28978
  MBC: > 64 µM
  MIC: 8 µM (≈ 4.23 µg/mL)
[4]; [8]
  MBC: 64 µM (≈ 33.8 µg/mL)
  MIC: 4 µM (≈ 2.11 µg/mL)
[4]; [9]
  MBC: 64 µM (≈ 33.8 µg/mL)
  MIC: 8 µM (≈ 4.23 µg/mL)
[4]; [10]
  MBC: 64 µM (≈ 33.8 µg/mL)
  MIC: 4 µM (≈ 2.11 µg/mL)
